Data set [1] can be described thus: solubility observed in the HTRF screening. Format: physicochemical. The settings on record: at 10 mM in the HTRF assay.
Data set [2] can be described thus: pH measurement of probes in the HTRF assay buffer. Format: physicochemical. The note with it: for pH value of probe in the buffer: 30 mM probe; for pH value of the buffer with BZA: Figure 6C. In general terms: In TR-FRET formats the signal depends on donor and acceptor labels being close together.
The conditions of data set [3]: reported data, no reference given; cited from earlier work.
Another data set addresses ST2 (Homo sapiens) (UniProt Q01638). Nature of the data set: BLI. The note with it: cited from earlier work.
Data set [4] concerns the target T1, recombinant human ST2-Fc-Histag (human, UniProt Q01638 19-328).
T1 sequence (looked up): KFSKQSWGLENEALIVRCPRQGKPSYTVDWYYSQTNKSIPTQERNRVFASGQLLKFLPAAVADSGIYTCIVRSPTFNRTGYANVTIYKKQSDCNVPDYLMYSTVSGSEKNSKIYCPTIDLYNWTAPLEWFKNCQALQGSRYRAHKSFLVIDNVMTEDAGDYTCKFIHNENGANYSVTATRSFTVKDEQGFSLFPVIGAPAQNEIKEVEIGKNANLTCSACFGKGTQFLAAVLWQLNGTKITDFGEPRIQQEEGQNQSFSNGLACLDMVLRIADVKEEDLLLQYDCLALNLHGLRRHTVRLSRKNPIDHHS
Put plainly: AlphaScreen or HTRF. For orientation: Bead proximity is the source of the signal in Alpha formats.

Data set [5] deals with T1, recombinant human ST2-Fc-Histag. Put plainly: AlphaScreen or HTRF. This is another data set of the same source.

Where “and” joins values, the source holds several entries; their conditions need not be identical. Identical values can stand only once. Like-named read-outs stand apart in the source and are kept apart here.

As for `O=C(O)c1ccc2ccccc2c1O` [Compound 1], the solubility result in data set [1] is recorded as “poor solubility”.
`NC(=O)c1cccnc1` [NAM, nicotinamide]: the “pH value of probe in the buffer” value in data set [2] is listed as 7.2.
One may read the pKa as the pH at which an ionisable group is half protonated. On to `NCc1cccnc1` [AMP, 3-(aminomethyl)pyridine], for which the pKa in data set [3] is 8.34. Besides, in data set [2], the “pH value of probe in the buffer” value was determined as 9.4.
By Kd is commonly meant the free concentration of one partner at which half of the binding sites on the other are occupied at equilibrium, for simple one-to-one binding. In the case of IL33 (from UniProt O95760), the equilibrium dissociation constant (Kd) with ST2 (Homo sapiens) is 2.23 nM.
For `N=C(N)c1ccccc1` [BZA, benzamidine], the “pH value of the buffer with BZA” value is 7.5 in data set [2] (0.12 mM BZA), 10.1 in data set [2] (3.3 mM BZA) and 10.8 in data set [2] (30 mM BZA). Further, the “pH value of probe in the buffer” value in data set [2] amounted to 10.5.
As for `O=C(O)c1ccccc1O` [SA, salicylic acid], the “pH value of probe in the buffer” value in data set [2] turned out to be 4.1.
With `O=C(O)c1cccnc1` [NA, nicotinic acid], the “pH value of probe in the buffer” value in data set [2] is 5.1.

B1: recombinant human IL33, un-biotinylated (ligand)
chain: SITGISPITEYLASLSTYNDQSITFALEDESYEIYVEDLKKDEKKDKVLLSYYESQHPSNESGDGVDGKMLMVTLSPTKDFWLHANNKEHSVELHKCEKPLPDQAFFVLHNMHSNCVSFECKTDPGVFIGVKDNHLALIKVDSSENLCTENILFKLSET
One may read the IC50 as the concentration that gives 50% inhibition. In the case of B1, the IC50 came to 2.25 ± 0.98 nM in data set [4] and 3.7 ± 0.29 nM in data set [5]. In addition, the “IC50 of one of two independent measurements” value in data set [4] is 2.94 nM and 1.5 nM; in data set [5], 3.49 nM and 3.9 nM.

The record behind these values is PMC9354565 (The journal of physical chemistry. B, 2022).
